Experimental data published in US10653822B2, “Drug delivery devices and methods of making and using same” (The Administrators of the Tulane Educational Fund, priority 2012, dated 2020).
Where two headings read alike, the source gives them in different places.

Assays:
[1] = In vitro release of model drugs (salicylic acid, ibuprofen) from breath figure and non-porous PLGA and PEG/PLGA films in PBS; format: physicochemical; conditions: PBS 37° C.
Description: Ibuprofen and Salicylic acid were used as model drugs to characterize the release profiles of breath figure polymer films. The equivalent non-porous smooth films were used as controls. In vitro release studies were carried out by incubating 1.5 cm side square drug incorporated films in 15 ml of PBS medium at 37° C. and stirred gently using a magnetic stirrer. At specific time intervals, 0.650 ml aliquots of the solution was withdrawn and centrifuged to remove any possible debris from the degrading polymer. Then, the aliquot was returned to the vial after measuring the absorbance to quantify drug release. The pH of the medium was monitored during the course of the experiment to verify that the solution is buffered adequately during polymer degradation. Ibuprofen and salicylic acid release were quantified through the absorbance at 221 and 296 nm, respectively. Standard calibration plots of ibuprofen and salicylic acid absorbance were constructed to correlate absorbance with drug release levels. All experiments were conducted in triplicate.
The release profile of breath figure PLGA and PEG/PLGA films was carried out in PBS medium (pH 7.4, 0.1M), incubated at 37° C. A non-porous film with the equivalent amount of drug dispersed was used as control. […] FIG. 14 illustrates the cumulative release of salicylic acid from the PLGA film and PEG/PLGA film, respectively, for a period of 2 days. […]

[2] = cited from earlier work
[3] = test system: LN-229 cells; assay: Clonogenic assay; format: cell-based, human; conditions: 12 days; drugs at 50 μM or wafer with 1 mg fenofibrate
Description: CHLONOGENIC ASSAY. […] Control cells were treated with the vehicle (DMSO). […] All the conditions were tested in duplicate and each experiment was performed at least three times.

[4] = test system: COS-1 cells; assay: COS-1 proliferation with MMC-loaded PLGA films, 5-day culture, toluidine blue; format: cell-based; conditions: MMC incorporated into the bulk PLGA film
Description: CELL CULTURE AND RELEASE STUDY. For the dose response study, control samples (no drug) and MMC-containing samples were loaded into sterile 12-well plates. […] COS-1 cells (10^4 cells) were added to each well and the cells were incubated at 37° C. in a humidified 5% CO2-95% air atmosphere. The culture medium was replenished on day 3 and day 5 after the cells were plated. After 5 days of culture, the cell accumulation in each culture dish was assessed. The culture medium was removed and the cell layer was gently washed 3 times with 5 mL of phosphate-buffered saline (PBS). […] The amount of dye in each well was measured by the absorbance at 650 nm, which is equivalent to the number of cells, using UV-Visible spectrophotometer (Model UB-1601, Shimadzu scientific instruments Inc, Houston, Tex.).
For the preliminary dose-response study, COS-1 cells (10^4 cells in 1 mL) were added to each well of a 12-well plate. […] After 5 days of culture, the cell accumulation in each culture dish was assessed by a modification of a previously described procedure (Leavesley D I, Ferguson G D, Wayner E A, et al. Requirement of the integrin beta 3 subunit for carcinoma cell spreading or migration on vitronectin and fibrinogen. J Cell Biol. 1992; 117:1101-1107.) Briefly, culture medium was removed and the cell layer was gently washed 2 times with 2 mL of phosphate-buffered saline (PBS). […]

[5] = In vitro release of MMC from surface-loaded PLGA films into PBS; format: physicochemical; conditions: films loaded with 1 and 5 μg MMC, absorbance at 364 nm
Description: Aliquots (0.65 mL) of the PBS were removed at specific time intervals after immersion of the polymer samples, and absorbance was measured at 364 nm using a UV spectrophotometer (Shimadzu UV-1700 series). After measurement, the aliquots were returned to the vials to maintain constant volume and sink conditions.

[6] = Stability of MMC in PBS and after spin-casting in PLGA-dichloromethane; format: physicochemical
[7] = test system: LN-229 cells
From the text: (§1) HIGH PERFORMANCE LIQUID CHROMATOGRAPHY. […] DAD wavelength was set to 285 nm.
HPLC parameters are given in the materials and methods section and in the legend to FIG. 39. Data represent average values from 2 experiments in triplicate (n=6)±SD (SD values for some points are too small to be visible). […] To test this alternative interpretation, we collected conditioned medium from the LN-229 cells cultured for 72 hrs.

[8] = Tissue distribution of FF and FA after oral fenofibrate in mice (HPLC); format: in vivo; conditions: for concentration at 4 weeks: Balb c/nude, mouse, oral, 50 mg/kg/day
Description: ANIMAL STUDIES. […] according to the standard ethically accepted procedure, and the following organs/body fluids were collected: blood, urine, liver, kidneys, spleen, heart, lungs, intact brain and intracranial tumor tissue.
as §1
For body fluids concentrations are calculated per ml of the body fluid, and in solid tissues per mg of the tissue.

[9] = test system: blood-brain barrier (BBB) in vitro model; conditions: coculture with inserts; cited from earlier work
[10] = test system: LN-229 cells; assay: Subcellular distribution of FF and FA in LN-229 membrane and cytosolic fractions (HPLC); conditions: per 10^6 LN-229 cells, 25 μM fenofibrate, 24 hrs
Description: (§2) Blood plasma, cell culture media, cellular and tissue lysates, were deproteinized by adding 150 μl of acetonitrile to 150 μl of sample, mixed well and centrifuged (15 000 g, 5 min). […] For the subcellular fractionation, subconfluent monolayer cultures were washed in phosphate buffered saline (PBS) twice, then cells were scraped and lysed in 2% sodium dodecyl sulphate (SDS) in PBS. The lysates were sonicated on ice and centrifuged (15 000 g, 5 min). Finally, 150 μl of the supernatant was mixed with the equal volume of acetonitrile, filtered through 0.22 μm centrifuge filter (Sigma) and analyzed by High Performance Liquid Chromatography (HPLC).
(§3) All data were obtained from the Agilent Technologies 1100 apparatus equipped with a line degasser, binary pump (high pressure mixer), autosampler, column thermostat and Diode Array Detector (DAD). The YMCBase, 3 μm 4.6×150 mm analytical column was used and solvent A—50 mM acetic acid in water or solvent B—acetonitrile, with isocratic flow 60%. Flow rate was set to 1 ml/min, column temperature was 20° C., and 5 μl of 0.22 μm filtered sample was injected. DAD wavelength was set to 285 nm.
(§4) Data represent average values from three separate measurements with standard deviation.

[11] = In vitro release of 5-FU from double-layered breath figure PLGA films in PBS; format: physicochemical
Description: IN VITRO RELEASE CHARACTERISTICS OF DOUBLE-LAYERED 5-FU-PLGA FILM. […] At specific time intervals, a 1 ml aliquot of the solution was withdrawn and 1 ml of fresh PBS was added to the vial to maintain constant volume. The pH of the medium was monitored during the course of the experiment to verify that the solution was buffered adequately during polymer degradation. Each aliquot was centrifuged to remove any possible debris from the degraded polymer components that could interfere with the absorbance readings and drug release was quantified through the absorbance measured at 266 nm. A standard calibration plot of 5-FU absorbance was constructed to correlate absorbance with drug release levels. All experiments were conducted with triplicate polymer samples.

[12] = test system: COS-1 cells; assay: Cytotoxicity of drug released into culture medium over timed intervals
[13] = HPLC detection of FF to FA conversion in human blood; format: in vitro ADME; conditions: 50 μM FF in human blood, 4 hours, 37° C.
From the text: as §1

[14] = 120 h
[15] = test system: LN-229 cells; conditions: human, 24 h, 25 µM
Description: as §2, §3, §4

[16] = blood, read-out: concentration in Blood
[17] = urine, read-out: concentration in Urine
[18] = mice, micronized fenofibrate 50 mg/kg/day oral, n = 4
[19] = mice, micronized fenofibrate 50 mg/kg/day oral, n = 6

Q: With `CC(C)Cc1ccc(C(C)C(=O)O)cc1` (stereo not shown) [ibuprofen] as the compound, how does the “duration of release from films” value [1] read?
A: The value was “at least 14 days”.

Q: What about the water solubility [2] of the same compound?
A: The water solubility was under 500 µg/mL.

Q: With `O=C(O)c1ccccc1O` [salicylic acid] as the compound, how does the water solubility [2] read?
A: Its water solubility is over 2000 µg/mL.

Q: For `Cc1cccc(Nc2cc(Cl)nc(SCC(=O)O)n2)c1C` [Wy-14,643], which “inhibition of clonal growth of LN-229 cells” value [3] is on record?
A: Its value is “not able to reproduce them”.

Q: With `CO[C@@]12[C@H](COC(N)=O)C3=C(C(=O)C(C)=C(N)C3=O)N1C[C@@H]1N[C@@H]12` [MMC, mitomycin C] as the compound, how does the “toxic effect of degraded products on COS-1 cells” value [4] read?
A: The value was “no toxic effect”.

Q: And the “active drug released from the film” value [5]?
A: Its value is 20-40%.

Q: What about the “loss of activity in PBS at 23 degrees C.” value ([6]; 50 day incubation, 23 degrees C.) of the same compound?
A: Its value is “approximately 15%”.

Q: What about the “loss of activity in PBS at 37 degrees C.” value ([6]; 50 day incubation, 37 degrees C.) of the same compound?
A: Its value is about 50%.

Q: And the “activity in PBS at 4 degrees C.” value ([6]; 50 days, 4 degrees C.)?
A: Its value is “retained its activity”.

Q: What about the “loss of activity after dissolving in PLGA-dichloromethane and spin-casting” value ([6]; spin-cast PLGA film) of the same compound?
A: The value was 100%.

Q: Which results are given for `CC(C)(Oc1ccc(C(=O)c2ccc(Cl)cc2)cc1)C(=O)O` [FA, fenofibric acid]?
A: FA detected after FF incubation in filtered conditioned medium [7]: did not detect any traces; concentration at 4 weeks [8, 16]: 3.33 µM; concentration at 4 weeks [8, 17]: 5.34 µM; concentration in Intracranial tumor ([8]; mice with intracranial LN-229, micronized fenofibrate 50 mg/kg/day oral, n = 6): 0 nmol/mg; concentration in Heart [8, 18]: 1.31 ± 1.4 nmol/mg; concentration in Spleen [8, 18]: 1.33 ± 1.1 nmol/mg; concentration in Brain ([8]; mice, micronized fenofibrate 50 mg/kg/day oral, n = 5): 0.06 ± 0.1 nmol/mg; concentration in Kidneys [8, 19]: 1.5 ± 0.8 nmol/mg; concentration in Liver [8, 19]: 11.35 ± 3.9 nmol/mg; concentration in Lungs [8, 19]: 0.36 ± 04 nmol/mg; BBB permeability coefficient [9]: 11.3 ×10⁻⁶ cm/s; amount in cytosolic fraction [10]: 0.57 nmol

Q: With `Cc1ccc(C)c(OCCCC(C)(C)C(=O)O)c1` [Gemfibrozil, gemfibrozil] as the compound, how does the “inhibition of clonal growth of LN-229 cells” value [3] read?
A: Its value is “not able to reproduce them”.

Q: For `O=c1[nH]cc(F)c(=O)[nH]1` [5-FU, 5-fluorouracil], which “continuous release of drug after the lag phase” value [11] is on record?
A: The value was 21 days.

Q: And the “duration of sharp increase in drug release after the delay” value [11]?
A: Its value is 10 days.

Q: What about the “lag period after the sharp release phase” value [11] of the same compound?
A: Its value is 2 to 3 days.

Q: And the “delay of the initial release by sealing” value ([11]; sealed top layer)?
A: Its value is 3 to 5 days.

Q: And the “burst effect in the first 24 hours of incubation” value ([11]; sealed top layer, 0.1, 0.4, 2 mg 5-FU)?
A: The value was “no burst effect”.

Q: What about the “water solubility (in words)” value [2] of the same compound?
A: Its value is “highly water soluble”.

Q: And the “killing efficiency (percent of cells killed vs PLGA film without drug)” value ([12]; double-layered film with 0.1 mg 5-FU, samples from >15 days of incubation)?
A: The value was “about 75%”.

Q: And the “total incubation with culture medium until maximum cytotoxicity” value ([12]; double-layered film with 0.4 mg 5-FU)?
A: The value was 4 to 5 days.

Q: Which “decrease of FF peak in human blood” value [13] does the source give for `CC(C)OC(=O)C(C)(C)Oc1ccc(C(=O)c2ccc(Cl)cc2)cc1` [FF, fenofibrate] here?
A: Its value is “about 5 fold”.

Q: And the “time of maximal intracellular concentration” value ([7]; human, 50 µM)?
A: The value was 24 h.

Q: And the concentration at 4 weeks [8, 16]?
A: The concentration at 4 weeks was 0 µM.

Q: What about the concentration at 4 weeks [8, 17] of the same compound?
A: The concentration at 4 weeks was 0 µM.

Q: And the “stability in culture medium” value [14]?
A: The value was “at least 120 h”.

Q: And the “amount in cytosolic fraction” value [15]?
A: Its value is 2.40 nmol.
